# Values of other authors as cited in publication PMC4360375 (Journal of Medicinal Chemistry, 2015).
# Where two headings read alike, the source gives them in different places.
# Test system: GABA uptake, rat synaptosome
# Conditions: literature data set, cited from earlier work
# [1] = ref 10.1016/S0968-0896(01)00148-1
smiles,measurement,setting,value
"O=C(O)[C@@H]1CCCN(CCOCCc2ccccc2)C1 [An_2001/6_43, O(CCc1ccccc1)CCN1C[C@@H](CCC1)C(O)=O]",pIC50,[1],5.347
"O=C(O)[C@@H]1CCCN(CCON=C(c2ccccc2)c2ccccc2)C1 [An_1999/4_(R)-7, O(\N=C(\c1ccccc1)/c1ccccc1)CCN1C[C@@H](CCC1)C(O)=O]",pIC50,ref 10.1021/jm980492e,6.863
"O=C(O)[C@@H]1CCCN(CCOC/C(=C/c2ccccc2)c2ccccc2)C1 [An_2001/6_41, O(CCN1C[C@@H](CCC1)C(O)=O)C\C(=C\c1ccccc1)\c1ccccc1]",pIC50,[1],6.297
"O=C(O)[C@@H]1CCCN(CCON=C(c2cccc(Cl)c2)c2cccc(Cl)c2)C1 [An_1999/3_93, Clc1cc(ccc1)\C(=N\OCCN1C[C@@H](CCC1)C(O)=O)\c1cc(Cl)ccc1]",pIC50,ref 10.1021/jm981027k,6.509
"O=C(O)[C@@H]1CCCN(CCO/N=C(/c2ccccc2)c2ccccn2)C1 [compound 11, O(\N=C(\c1ccccc1)/c1ncccc1)CCN1C[C@@H](CCC1)C(O)=O]",pIC50,ref 10.1021/jm981027k,5.684
"O=C(O)[C@@H]1CCCN(CCCCN(c2ccccc2)c2ccccc2)C1 [An_1999/4_(R)-11, OC(=O)[C@@H]1CCCN(C1)CCCCN(c1ccccc1)c1ccccc1]",pIC50,ref 10.1021/jm980492e,5.585
"Cc1ccccc1C(=COCCN1CCC[C@@H](C(=O)O)C1)c1ccccc1C [An_1999/3_45, O(\C=C(\c1ccccc1C)/c1ccccc1C)CCN1C[C@@H](CCC1)C(O)=O]",pIC50,ref 10.1021/jm981027k,7.699
"O=C(O)[C@@H]1CCCN(CCO/N=C(\c2ccccc2)C2CC2)C1 [An_2001/6_14, O(\N=C(\C1CC1)/c1ccccc1)CCN1C[C@@H](CCC1)C(O)=O]",pIC50,[1],5.907
"O=C(O)[C@@H]1CCCN(CCOCCN(c2ccccc2)c2ccccc2)C1 [An_1999/4_(R)-17, O(CCN1C[C@@H](CCC1)C(O)=O)CCN(c1ccccc1)c1ccccc1]",pIC50,ref 10.1021/jm980492e,7.046
"Cc1ccccc1/C(=C\OCCN1CCC[C@@H](C(=O)O)C1)c1cccc(F)c1 [An_1999/3_71, Fc1cc(ccc1)/C(=C/OCCN1C[C@@H](CCC1)C(O)=O)/c1ccccc1C]",pIC50,ref 10.1021/jm981027k,7.523
"Cc1ccsc1C(=CCCN1CCC=C(C(=O)O)C1)c1sccc1C [An_1993_30, s1ccc(C)c1\C(=C\CCN1CC(=CCC1)C(O)=O)\c1sccc1C]",pIC50,ref 10.1021/jm00064a005,6.854
"O=C(O)[C@@H]1CCCN(CCOc2ccccc2Cc2ccccc2)C1 [An_2001/6_34, O(CCN1C[C@@H](CCC1)C(O)=O)c1ccccc1Cc1ccccc1]",pIC50,[1],5.158
"O=C(O)[C@@H]1CCCN(CCOCCN2c3ccccc3Oc3ccccc32)C1 [An_2001/5_20, O1c2c(N(c3c1cccc3)CCOCCN1C[C@@H](CCC1)C(O)=O)cccc2]",pIC50,ref 10.1021/jm990513k,5.836
"Cc1csc(/C(=N/OCCN2CCC[C@H](C(=O)O)C2)c2ccccc2C)c1 [An_1999/3_21, s1cc(cc1/C(=N/OCCN1C[C@H](CCC1)C(O)=O)/c1ccccc1C)C]",pIC50,ref 10.1021/jm981027k,5.062
"Cc1ccccc1/C(=N\OCCN1CCC[C@@H](C(=O)O)C1)c1ccccc1F [An_1999/3_89, Fc1ccccc1/C(=N/OCCN1C[C@@H](CCC1)C(O)=O)/c1ccccc1C]",pIC50,ref 10.1021/jm981027k,7.398
"O=C(O)[C@@H]1CCCN(CCO/N=C(\c2ccc(F)cc2F)c2cc(F)ccc2F)C1 [An_1999/3_67, Fc1cc(F)ccc1/C(=N\OCCN1C[C@@H](CCC1)C(O)=O)/c1cc(F)ccc1F]",pIC50,ref 10.1021/jm981027k,7.301
"O=C(O)C1=CCCN(CCOC=C(c2cccc(F)c2)c2cccc(F)c2)C1 [An_1999/3_105, Fc1cc(ccc1)\C(=C\OCCN1CC(=CCC1)C(O)=O)\c1cc(F)ccc1]",pIC50,ref 10.1021/jm981027k,6.456
"O=C(O)[C@@H]1CCCN(CCOCCOCCN(c2ccccc2)c2ccccc2)C1 [An_1999/4_(R)-20, O(CCN1C[C@@H](CCC1)C(O)=O)CCOCCN(c1ccccc1)c1ccccc1]",pIC50,ref 10.1021/jm980492e,5.046
"Cc1ccccc1/C(=N\OCCN1CCC[C@H](C(=O)O)C1)c1cccc(Cl)c1 [An_1999/3_91, Clc1cc(ccc1)/C(=N/OCCN1C[C@H](CCC1)C(O)=O)/c1ccccc1C]",pIC50,ref 10.1021/jm981027k,7.046
"Cc1ccccc1/C(=C/OCCN1CCC[C@@H](C(=O)O)C1)c1ccccc1 [An_1999/3_97, O(\C=C(\c1ccccc1C)/c1ccccc1)CCN1C[C@@H](CCC1)C(O)=O]",pIC50,ref 10.1021/jm981027k,7.301
"Cc1csc(/C(=N\OCCN2CCC[C@H](C(=O)O)C2)c2ccccc2C)c1 [An_1999/3_23, s1cc(cc1/C(=N\OCCN1C[C@H](CCC1)C(O)=O)/c1ccccc1C)C]",pIC50,ref 10.1021/jm981027k,5.917
"Cc1cc(F)ccc1C(=COCCN1CCC=C(C(=O)O)C1)c1ccc(F)cc1C [An_1999/3_100, Fc1cc(C)c(cc1)\C(=C\OCCN1CC(=CCC1)C(O)=O)\c1ccc(F)cc1C]",pIC50,ref 10.1021/jm981027k,7.097
"O=C(O)[C@@H]1CCCN(CCOCCCN2c3ccccc3CCc3ccccc32)C1 [An_2001/5_32, O(CCCN1c2c(CCc3c1cccc3)cccc2)CCN1C[C@@H](CCC1)C(O)=O]",pIC50,ref 10.1021/jm990513k,6.155
"O=C(O)[C@@H]1CCCN(CCOC/C=C2\c3ccccc3CCc3ccc(Cl)cc32)C1 [An_2001/5_35, Clc1cc\2c(CCc3c(cccc3)/C/2=C\COCCN2C[C@@H](CCC2)C(O)=O)cc1]",pIC50,ref 10.1021/jm990513k,5.603
"O=C(O)[C@@H]1CCCN(CCON=C(c2ccc(F)cc2Cl)c2ccc(F)cc2Cl)C1 [An_1999/3_94, Clc1cc(F)ccc1\C(=N\OCCN1C[C@@H](CCC1)C(O)=O)\c1ccc(F)cc1Cl]",pIC50,ref 10.1021/jm981027k,7
"O=C(O)[C@@H]1CCCN(CCO/C=C(\c2ccccc2)c2ccccc2Cl)C1 [An_1999/3_73, Clc1ccccc1\C(=C\OCCN1C[C@@H](CCC1)C(O)=O)\c1ccccc1]",pIC50,ref 10.1021/jm981027k,7.921
"O=C(O)[C@@H]1CCCN(CCOCCc2ccccc2-c2ccccc2)C1 [An_2001/6_39, O(CCc1ccccc1-c1ccccc1)CCN1C[C@@H](CCC1)C(O)=O]",pIC50,[1],6.959
"O=C(O)[C@@H]1CCCN(CCOCCc2ccccc2Cc2ccccc2)C1 [An_2001/6_40, O(CCc1ccccc1Cc1ccccc1)CCN1C[C@@H](CCC1)C(O)=O]",pIC50,[1],7
"O=C(O)[C@@H]1CCCN(CCOCc2ccccc2Cc2ccccc2)C1 [An_2001/6_37, O(Cc1ccccc1Cc1ccccc1)CCN1C[C@@H](CCC1)C(O)=O]",pIC50,[1],6.495
"Cc1ccccc1/C(=C\OCCN1CCC=C(C(=O)O)C1)c1ccccc1F [An_1999/3_72, Fc1ccccc1/C(=C/OCCN1CC(=CCC1)C(O)=O)/c1ccccc1C]",pIC50,ref 10.1021/jm981027k,7.699
"CC(C)/C=C(/C=N/OCCN1CCC[C@@H](C(=O)O)C1)c1ccccc1 [An_2001/6_21, O(\N=C\C(=C\C(C)C)\c1ccccc1)CCN1C[C@@H](CCC1)C(O)=O]",pIC50,[1],6.569
"O=C(O)[C@@H]1CCCN(CCOCCC2c3ccccc3CCc3ccccc32)C1 [An_2001/5_37, O(CCC1c2c(CCc3c1cccc3)cccc2)CCN1C[C@@H](CCC1)C(O)=O]",pIC50,ref 10.1021/jm990513k,6.252
"CN(CCC(c1ccccc1)c1ccccc1)CCN1CCC[C@@H](C(=O)O)C1 [An_1999/4_(R)-35, OC(=O)[C@@H]1CCCN(C1)CCN(CCC(c1ccccc1)c1ccccc1)C]",pIC50,ref 10.1021/jm980492e,5.244
"Cc1cc(Cl)ccc1/C(=C\CCN1CCC=C(C(=O)O)C1)c1sccc1C [An_1993_45, Clc1cc(C)c(cc1)\C(=C/CCN1CC(=CCC1)C(O)=O)\c1sccc1C]",pIC50,ref 10.1021/jm00064a005,6.523
"O=C(O)[C@@H]1CCCN(CCOCCN2c3ccccc3CCc3ccccc32)C1 [An_2001/5_23, O(CCN1C[C@@H](CCC1)C(O)=O)CCN1c2c(CCc3c1cccc3)cccc2]",pIC50,ref 10.1021/jm990513k,6.745
"Cc1csc(/C(=N\OCCN2CCC[C@@H](C(=O)O)C2)c2ccccc2C)c1 [An_1999/3_22, s1cc(cc1/C(=N\OCCN1C[C@@H](CCC1)C(O)=O)/c1ccccc1C)C]",pIC50,ref 10.1021/jm981027k,6.585
"Cc1ccsc1C(=CCCN1CCC[C@H](C(=O)O)C1)c1sccc1C [(S)-Tiagabine, s1ccc(C)c1\C(=C\CCN1C[C@H](CCC1)C(O)=O)\c1sccc1C]",pIC50,ref 10.1021/jm00064a005,6.658
"O=C(O)[C@@H]1CCCN(CCOCc2ccccc2-c2ccccc2)C1 [An_2001/6_35, O(Cc1ccccc1-c1ccccc1)CCN1C[C@@H](CCC1)C(O)=O]",pIC50,[1],6.476
O=C(O)[C@@H]1CCCN(CCCCCCCCN(c2ccccc2)c2ccccc2)C1 [An_1999/4_(R)-15],pIC50,ref 10.1021/jm980492e,5.889
"O=C(O)[C@@H]1CCCN(CCOCC=C2c3ccccc3CCc3ccccc32)C1 [An_2001/5_34, O(CCN1C[C@@H](CCC1)C(O)=O)C\C=C/1\c2c(CCc3c\1cccc3)cccc2]",pIC50,ref 10.1021/jm990513k,6.114
"Cc1ccsc1C(=NOCCN1CCC[C@@H](C(=O)O)C1)c1sccc1C [An_1999/3_12, s1ccc(C)c1\C(=N\OCCN1C[C@@H](CCC1)C(O)=O)\c1sccc1C]",pIC50,ref 10.1021/jm981027k,7.398
"Cc1ccccc1/C(=C/OCCN1CCC=C(C(=O)O)C1)c1cccc(Cl)c1 [An_1999/3_78, Clc1cc(ccc1)/C(=C\OCCN1CC(=CCC1)C(O)=O)/c1ccccc1C]",pIC50,ref 10.1021/jm981027k,7.222
O=C(O)[C@@H]1CCCN(CCCCCCCC(=O)N(c2ccccc2)c2ccccc2)C1 [An_1999/4_(R)-16],pIC50,ref 10.1021/jm980492e,5.046
"O=C(O)[C@@H]1CCCN(CCOCC=C(c2ccc(Cl)cc2)c2ccc(Cl)cc2)C1 [An_1999/4_(R)-25, Clc1ccc(cc1)\C(=C\COCCN1C[C@@H](CCC1)C(O)=O)\c1ccc(Cl)cc1]",pIC50,ref 10.1021/jm980492e,6.018
"Cc1cc(F)ccc1C(=COCCN1CCC[C@@H](C(=O)O)C1)c1ccc(F)cc1C [An_1999/3_77, Fc1cc(C)c(cc1)\C(=C\OCCN1C[C@@H](CCC1)C(O)=O)\c1ccc(F)cc1C]",pIC50,ref 10.1021/jm981027k,7.222
"Cc1ccccc1/C(=N\OCCN1CCC[C@@H](C(=O)O)C1)c1sccc1C [An_1999/3_40, s1ccc(C)c1/C(=N/OCCN1C[C@@H](CCC1)C(O)=O)/c1ccccc1C]",pIC50,ref 10.1021/jm981027k,7.046
"O=C(O)[C@@H]1CCCN(CCOC=C(c2ccc(F)cc2F)c2ccc(F)cc2F)C1 [An_1999/3_79, Fc1cc(F)ccc1\C(=C\OCCN1C[C@@H](CCC1)C(O)=O)\c1ccc(F)cc1F]",pIC50,ref 10.1021/jm981027k,6.886
"O=C(O)[C@@H]1CCCN(CCOC=C(c2ccc(F)cc2Cl)c2ccc(F)cc2Cl)C1 [An_1999/3_111, Clc1cc(F)ccc1\C(=C\OCCN1C[C@@H](CCC1)C(O)=O)\c1ccc(F)cc1Cl]",pIC50,ref 10.1021/jm981027k,7.18
"Cc1ccccc1/C(=C/COCCN1CCC[C@@H](C(=O)O)C1)c1ccccc1 [An_1999/4_(R)-22, O(CCN1C[C@@H](CCC1)C(O)=O)C\C=C(\c1ccccc1C)/c1ccccc1]",pIC50,ref 10.1021/jm980492e,6.62
"O=C(O)[C@@H]1CCCN(CCON=C2c3cc(Cl)ccc3CCc3ccc(Cl)cc32)C1 [An_2001/5_17, Clc1cc\2c(CCc3c(cc(Cl)cc3)/C/2=N\OCCN2C[C@@H](CCC2)C(O)=O)cc1]",pIC50,ref 10.1021/jm990513k,5.259
